SMILES strings stand for the structures.

What all share (type): biochemical
For one assay, the target named is T1, Aurora-2 (Homo sapiens, UniProt O14965).
T1 construct: addition of 10 μL of Aurora-2 stock solution to give a final concentration of 70 nM
T1 sequence (O14965 1-403): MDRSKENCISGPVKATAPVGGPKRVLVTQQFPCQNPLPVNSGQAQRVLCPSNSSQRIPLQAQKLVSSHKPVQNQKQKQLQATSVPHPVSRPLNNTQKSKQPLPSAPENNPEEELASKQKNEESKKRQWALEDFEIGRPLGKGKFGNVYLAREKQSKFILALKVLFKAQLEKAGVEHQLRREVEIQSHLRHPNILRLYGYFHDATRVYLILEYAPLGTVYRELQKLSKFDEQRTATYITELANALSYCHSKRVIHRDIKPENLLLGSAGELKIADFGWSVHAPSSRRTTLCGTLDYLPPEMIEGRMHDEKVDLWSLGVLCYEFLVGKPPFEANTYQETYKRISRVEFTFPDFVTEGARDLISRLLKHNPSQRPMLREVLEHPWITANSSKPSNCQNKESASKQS
The experiment in a line: Inhibition of AUR-2, coupled enzyme assay. As to the method:
Compounds are screened in the following manner for their ability to inhibit Aurora-2 using a standard coupled enzyme assay (Fox et al (1998) Protein Sci 7, 2249). To an assay stock buffer solution containing 0.1M HEPES 7.5, 10 mM MgCl2, 1 mM DTT, 25 mM NaCl, 2.5 mM phosphoenolpyruvate, […], 30 mg/ml pyruvate kinase, 10 mg/ml lactate dehydrogenase, 40 mM ATP, and 800 μM peptide (LRRASLG, American Peptide, Sunnyvale, Calif.) is added a DMSO solution of a compound of the present invention to a final concentration of 30 μM. The resulting mixture is incubated at 30° C. for 10 min. The reaction was initiated by the addition of 10 μL of Aurora-2 stock solution to give a final concentration of 70 nM in the assay. The rates of reaction are obtained by monitoring absorbance at 340 nm over a 5 minute read time at 30° C. using a BioRad Ultramark plate reader (Hercules, Calif.). The Ki values are determined from the rate data as a function of inhibitor concentration.

A further assay deals with GSK-3β (AA 1-420) (Homo sapiens, UniProt P49841). The experiment in a line: Inhibition of GSK-3, coupled enzyme system. The note with it: 20 μM ATP, 30° C. As to the method:
Compounds are screened for their ability to inhibit GSK-3β (AA 1-420) activity using a standard coupled enzyme system [Fox et al. Protein Sci. 1998, 7, 2249]. Reactions are carried out in a solution containing 100 mM HEPES (pH 7.5), 10 mM MgCl2, 25 mM NaCl, 300 μM NADH, 1 mM DTT and 1.5% DMSO. Final substrate concentrations in the assay are 20 μM ATP (Sigma Chemicals, St Louis, Mo.) and 300 μM peptide (American Peptide, Sunnyvale, Calif.). Reactions are carried out at 30° C. and 20 nM GSK-3β. Final concentrations of the components of the coupled enzyme system are 2.5 mM phosphoenolpyruvate, 300 μM NADH, 30 μg/ml pyruvate kinase and 10 μg/ml lactate dehydrogenase.
An assay stock buffer solution is prepared containing all of the reagents listed above with the exception of ATP and the test compound of interest. The assay stock buffer solution (175 μl) is incubated in a 96 well plate with 5 μl of the test compound of interest at final concentrations spanning 0.002 μM to 30 μM at 30° C. for 10 min. Typically, a 12 point titration is conducted by preparing serial dilutions (from 10 mM compound stocks) with DMSO of the test compounds in daughter plates. The reaction is initiated by the addition of 20 μl of ATP (final concentration 20 μM). Rates of reaction are obtained using a Molecular Devices Spectramax plate reader (Sunnyvale, Calif.) over 10 min at 30° C. The Ki values are determined from the rate data as a function of inhibitor concentration.

The target in a further assay is T2, c-KIT (Homo sapiens, UniProt P10721).
T2 construct: 0.02% BSA and 25 nM c-KIT
Description: Inhibition of c-KIT, radiometric filter-binding assay. Conditions: 700 μM ATP, pE4Y substrate. As to the method: Compounds are screened for their ability to inhibit c-KIT activity using a radiometric filter-binding assay. This assay monitors the ^33P incorporation into a substrate poly(Glu, Tyr) 4:1 (pE4Y). Reactions are carried out in a solution containing 100 mM HEPES (pH 7.5), 10 mM MgCl2, 25 mM NaCl, 1 mM DTT, 0.01% BSA and 2.5% DMSO. Final substrate concentrations in the assay were 700 μM ATP and 0.5 mg/mL pE4Y (both from Sigma Chemicals, St Louis, Mo.). The final concentration of compounds is generally between 0.01 and 5 μM. Typically, a 12-point titration is conducted by preparing serial dilutions from 10 mM DMSO stock of test compound. Reactions were carried out at room temperature.
Two assay solutions are prepared. Solution 1 contains 100 mM HEPES (pH 7.5), 10 mM MgCl2, 25 mM NaCl, 1 mg/ml pE4Y and 1.4 mM ATP (containing 0.5 μCi of [γ-^33P]ATP for each reaction). Solution 2 contains 100 mM HEPES (pH 7.5), 10 mM MgCl2, 25 mM NaCl, 2 mM DTT, 0.02% BSA and 25 nM c-KIT. The assay is run on a 96 well plate by mixing 33 μL of Solution1 and 1.65 μL of the test compounds. The reaction is initiated with 33 μL of Solution2. After incubation for 20 minutes at room temperature, the reaction was stopped with 50 μL of 10% TCA containing 0.2 mM of ATP. All of the reaction volume is then transferred to a filter plate and washed with 5% TCA by a Harvester9600 from TOMTEC (Hamden, Conn.). The amount of ^33P incorporation into pE4y is analyzed by a Packard TopCount Microplate Scintillation Counter (Meriden, Conn.). The data is fitted using Prism software to get an IC50 or Ki.

T2 sequence (P10721 26-976): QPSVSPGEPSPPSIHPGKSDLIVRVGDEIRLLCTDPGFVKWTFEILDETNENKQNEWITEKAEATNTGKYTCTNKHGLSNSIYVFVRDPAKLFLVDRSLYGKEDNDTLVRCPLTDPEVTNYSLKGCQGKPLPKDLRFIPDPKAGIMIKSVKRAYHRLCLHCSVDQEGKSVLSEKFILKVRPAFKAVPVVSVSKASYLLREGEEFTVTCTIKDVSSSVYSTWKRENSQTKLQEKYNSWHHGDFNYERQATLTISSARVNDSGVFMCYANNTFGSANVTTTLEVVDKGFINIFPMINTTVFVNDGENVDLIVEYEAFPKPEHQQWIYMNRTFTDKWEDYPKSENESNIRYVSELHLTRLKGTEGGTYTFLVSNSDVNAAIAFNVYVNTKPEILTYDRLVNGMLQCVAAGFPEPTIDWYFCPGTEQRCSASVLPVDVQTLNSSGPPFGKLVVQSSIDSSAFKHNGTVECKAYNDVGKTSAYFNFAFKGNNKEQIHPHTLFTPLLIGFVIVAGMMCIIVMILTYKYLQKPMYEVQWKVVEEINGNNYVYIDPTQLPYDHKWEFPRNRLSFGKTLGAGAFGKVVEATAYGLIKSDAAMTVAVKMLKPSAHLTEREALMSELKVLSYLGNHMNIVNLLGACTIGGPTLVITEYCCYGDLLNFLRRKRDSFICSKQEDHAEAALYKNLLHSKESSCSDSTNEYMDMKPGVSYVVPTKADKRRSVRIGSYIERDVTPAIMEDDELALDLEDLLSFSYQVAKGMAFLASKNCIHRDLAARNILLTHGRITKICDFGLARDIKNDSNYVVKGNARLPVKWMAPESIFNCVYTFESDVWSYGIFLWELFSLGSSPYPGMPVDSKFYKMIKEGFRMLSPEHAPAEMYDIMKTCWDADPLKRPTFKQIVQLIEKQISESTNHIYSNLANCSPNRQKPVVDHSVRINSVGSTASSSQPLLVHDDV
Sequence of GSK-3β (AA 1-420) (P49841 whole entry, the tested form may be a part): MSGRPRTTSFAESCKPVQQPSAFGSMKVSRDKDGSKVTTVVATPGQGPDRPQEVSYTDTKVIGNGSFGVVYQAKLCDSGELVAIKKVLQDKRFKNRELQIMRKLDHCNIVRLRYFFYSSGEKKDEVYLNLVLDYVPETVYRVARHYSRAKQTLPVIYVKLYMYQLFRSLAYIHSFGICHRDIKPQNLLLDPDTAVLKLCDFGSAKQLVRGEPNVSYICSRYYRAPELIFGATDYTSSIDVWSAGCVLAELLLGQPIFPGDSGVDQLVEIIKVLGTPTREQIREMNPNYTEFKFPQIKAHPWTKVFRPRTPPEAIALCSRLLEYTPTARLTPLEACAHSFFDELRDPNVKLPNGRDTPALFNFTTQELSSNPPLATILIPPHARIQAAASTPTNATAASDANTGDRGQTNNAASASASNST

`COc1cc(Nc2ncn(-c3ccccc3)n2)cc(OC)c1OC` [Compound I-42]: the Ki (in general, the equilibrium dissociation constant of an inhibitor or competing ligand from its target) on Aurora-2 is 100 to 1000 nM; on GSK-3β (AA 1-420) it was > 1000 nM.

With `COc1cc(Nc2ncn(-c3ccc(C#N)cc3)n2)cc(OC)c1OC` [Compound I-43], the figures for the inhibition constant Ki on Aurora-2 and on GSK-3β (AA 1-420) were 100 to 1000 nM and 500 to 1000 nM, respectively.

For the molecule `CCOc1cccc(Nc2ncn(-c3ccccc3)n2)c1` [Compound I-45], the Ki at Aurora-2 was > 1000 nM; on c-KIT, < 50 nM; at GSK-3β (AA 1-420) it was > 1000 nM.

`CC(C)Oc1cccc(Nc2ncn(-c3ccccc3)n2)c1` [Compound I-46]: the results for the Ki on Aurora-2, at c-KIT and on GSK-3β (AA 1-420) were > 1000 nM, < 50 nM and > 1000 nM, respectively.

As to `OC[C@H]1CCCN(c2cc(-n3cnc(Nc4ccccc4)n3)ccn2)C1` [Compound I-65], the Ki at Aurora-2 was in the range of 100 to 1000 nM; on GSK-3β (AA 1-420) it was 500 to 1000 nM.

Consider `CC(=O)N1CCCN(c2cc(-n3cnc(Nc4ccccc4)n3)ccn2)CC1` [Compound I-66], for which the Ki is 100 to 1000 nM at Aurora-2, 50 to 500 nM at c-KIT and > 1000 nM on GSK-3β (AA 1-420).

For the molecule `CCC(=O)N1CCCN(c2cc(-n3cnc(Nc4ccccc4)n3)ccn2)CC1` [Compound I-67], the Ki on Aurora-2 was 100 to 1000 nM; on GSK-3β (AA 1-420) it was > 1000 nM.

Consider `COCC(=O)N1CCCN(c2cc(-n3cnc(Nc4ccccc4)n3)ccn2)CC1` [Compound I-71], for which the Ki at Aurora-2 is 100 to 1000 nM; on GSK-3β (AA 1-420), > 1000 nM.

As to `N#CCC(=O)N1CCCN(c2cc(-n3cnc(Nc4ccccc4)n3)ccn2)CC1` [Compound I-72], the inhibitory constant (Ki) on Aurora-2 was 100 to 1000 nM; on c-KIT, 50 to 500 nM; at GSK-3β (AA 1-420), > 1000 nM.

As to `c1ccc(Nc2ncn(-c3ccnc(N4CCCCCC4)c3)n2)cc1` [Compound I-73], the Ki on Aurora-2 was < 100 nM; on c-KIT it was 50 to 500 nM; on GSK-3β (AA 1-420), 500 to 1000 nM.

For the molecule `CC(=O)N1[C@H](C)CN(c2cc(-n3cnc(Nc4ccccc4)n3)ccn2)C[C@@H]1C` [Compound I-74], the Ki at Aurora-2 was < 100 nM; at c-KIT, 50 to 500 nM; at GSK-3β (AA 1-420) it was > 1000 nM.

Turning to `CCOC(=O)c1ccc(Nc2ncn(-c3ccnc(N4C[C@@H](C)N(C(C)=O)[C@@H](C)C4)c3)n2)cc1` [Compound I-75], the figures for the Ki on Aurora-2, on c-KIT and at GSK-3β (AA 1-420) were < 100 nM, < 50 nM and > 1000 nM, respectively.

Consider `CC(=O)N1[C@H](C)CN(c2cc(-n3cnc(Nc4ccc(NC(=O)N(C)C)cc4)n3)ccn2)C[C@@H]1C` [Compound I-77, 3-(4-{1-[2-(4-Acetyl-3,5-dimethyl-piperazin-1-yl)-pyridin-4-yl]-1H-[1,2,4]triazol-3-ylamino}-phenyl)-1,1-dimethyl-urea], for which the Ki at Aurora-2 is < 100 nM; at c-KIT, 50 to 500 nM; at GSK-3β (AA 1-420), > 1000 nM.

With `COC(=O)Nc1ccc(Nc2ncn(-c3ccnc(N4C[C@@H](C)N(C(C)=O)[C@@H](C)C4)c3)n2)cc1` [Compound I-78], the Ki was < 100 nM at Aurora-2, 50 to 500 nM on c-KIT and > 1000 nM at GSK-3β (AA 1-420).

On to `CC(=O)N1[C@H](C)CN(c2cc(-n3cnc(Nc4ccc(NC(=O)C(F)(F)F)cc4)n3)ccn2)C[C@@H]1C` [Compound I-79], for which the results for the Ki at Aurora-2, on c-KIT and at GSK-3β (AA 1-420) were < 100 nM, 50 to 500 nM and > 1000 nM, respectively.

For `CC(=O)N1[C@H](C)CN(c2cc(-n3cnc(Nc4ccc(N)cc4)n3)ccn2)C[C@@H]1C` [Compound I-82], the Ki at Aurora-2 is < 100 nM; on c-KIT it was 50 to 500 nM; at GSK-3β (AA 1-420), > 1000 nM.

Turning to `CC(=O)N1[C@H](C)CN(c2cc(-n3cnc(Nc4ccc(N5CCOCC5)cc4)n3)ccn2)C[C@@H]1C` [Compound I-85, 1-(2,6-Dimethyl-4-{4-[3-(4-morpholin-4-yl-phenylamino)-[1,2,4]triazol-1-yl]-pyridin-2-yl}-piperazin-1-yl)-ethanone], the Ki at Aurora-2 is < 100 nM; on c-KIT, 50 to 500 nM; at GSK-3β (AA 1-420) it was > 1000 nM.

`CCCOC(=O)Nc1ccc(Nc2ncn(-c3ccnc(N4C[C@@H](C)N(C(C)=O)[C@@H](C)C4)c3)n2)cc1` [Compound I-88]: the Ki on Aurora-2 is < 100 nM; on c-KIT it was 50 to 500 nM; on GSK-3β (AA 1-420), > 1000 nM.

Regarding `CC(=O)N1[C@H](C)CN(c2cc(-n3cnc(Nc4ccc(NC(=O)OC(C)C)cc4)n3)ccn2)C[C@@H]1C` [Compound I-89], the figures for the inhibitory constant (Ki) at Aurora-2, on c-KIT and at GSK-3β (AA 1-420) were < 100 nM, 50 to 500 nM and > 1000 nM, respectively.

In the case of `c1ccc(-n2cnc(Nc3ccnc(N4CCOCC4)c3)n2)cc1` [Compound I-105], the Ki is 100 to 1000 nM at Aurora-2, < 50 nM at c-KIT and > 1000 nM on GSK-3β (AA 1-420).

Values taken from patent publication US7598245B2 (Vertex Pharmaceuticals Incorporated, priority 2003, dated 2009).
